{"source": "patent US20090298077A1", "about": "“ASSAY FOR MEASUREMENT OF APURINIC/APYRIMIDINIC (AP) SITES AND FOR SCREENING AP-SITE REACTIVE COMPOUNDS” (priority 2006, published 2009)", "type_in_all_cases": "binding, calf", "key": {"AP-DNA [1]": {"system": "AP-DNA", "assay": "FARP AP-site assay: screening of MX-like compounds in competition with FARP", "protocol": "(§1) 100 μL of 5 μM FARP in phosphate buffer (10 mM, pH 7.0) was added to 200 μL phosphate buffer (10 mM, pH 7.0) containing 10 μg of DNA extracted from cells, individual AP-DNA standard (10, 20, 40, 80, 160, 320, and 640 nM AP), and blank AP-DNA control, respectively. After vortexing, the reaction was allowed to proceed at room temperature for 15 min. At the end of the reaction 200 μL ammonium acetate (7.5M) and 1000 μL ice-cold ethanol (100%) were added. The solution was mixed gently by inverting the tube before keeping it at −20° C. for 30 min. Each tube was centrifuged at 4° C. and 12,000 g for 10 min. The supernatant was poured out carefully so that no loss of FARP-AP-DNA took place. 1200 μL of ice-cold ethanol (70%) was added to each tube to remove the free FARP by centrifugation at 4° C. and 12,000 g for 10 min. This washing step with 70% ice-cold ethanol was repeated two more times. After discarding the supernatant, the FARP-AP-DNA precipitate in the tube was dried at room temperature for 30 min. in a venting hood. The FARP-AP-DNA precipitate was hydrated and resuspended in 200 μL of phosphate buffer (10 mM, pH 9.0) at room temperature for 1 hr. The fluorescence intensity of the resultant FARP-AP-DNA solution was measured by the FluoroMax-2 spectrofluorometer. A calibration curve could be constructed by plotting the fluorescence intensity versus the concentration of AP sites.\nOne important application of the FARP AP-site assay developed is to screen MX-like compounds for their reactivity to AP site based on known chemical structures. In this work, four compounds with aminooxy or hydrazone group (i.e., MXL1O1, MXLIO2, MXLI 03, and MXL 104) together with MX were tested. The detail experiment included mixing equal concentration and volume of each individual test compound with FARP (50 μM in 100 μL of 10 mM phosphate buffer at pH 7.0) before reacting with 200 µL of 100 nM AP-DNA. The remaining experimental procedures were the same as described in the Experimental section. The data of fluorescence intensity reduced by MX and MX-like compounds were given in Table XI and the fluorescence intensity of the test compounds were compared in FIG. 19."}, "AP-DNA [2]": {"system": "AP-DNA", "assay": "Competitive reactions between FARP and MX with AP-DNA", "settings": "for Fluorescence Intensity/10^4: 125 nM AP-DNA", "protocol": "as §1\nSince aminooxy and hydrazone nucleophiles can react with aldehyde group of AP site and form condensation product, it is desirable to know when MX and FARP compete with AP-DNA, which compound has greater reactivity toward AP-DNA. The finding of this experiment will lay the foundation of a screening assay for MX-like compounds.\nIn the study, the amount of AP-DNA used were 125 nM in 200 μL of 10 mM phosphate buffer at pH 7.0 and the ratios of [FARP]/[MX] were as follows: 50 μM FARP/0 μM, 50.0 μM/5 μM, 50.0 μM/12.5 μM, 50.0 μM/16.7 μM, 50.0 μM/25.0 μM 50.0 μM/22.7 μM, 50.0 μM/25 μM, 50.0 μM/50.0 μM, 50.0 μM/100.0 μM, 50.0 μM/200.0 μM, 50.0 μM/500.0 μM in 100 μL of 10 mM phosphate buffer at pH 7.0. Because MX and FARP were competing for a limited amount of AP-DNA, and only FARP-AP-DNA was fluorescent, the reduced fluorescence intensity reflected the amount of MX binding to the AP sites. […] This is probably due to the molecular size of MX, which allows it to diffuse to faster to the AP-DNA than FARP molecule in aqueous solution."}, "AP-DNA [3]": {"system": "AP-DNA", "assay": "Reversibility study of the condensation reaction between FARP / MX and AP-DNA", "settings": "for Fluorescence Intensity, FARP Reaction Followed MX Reaction: FARP-AP-DNA incubated with 50 μM MX; for Fluorescence Intensity, MX Replacement Followed by FARP Replacement: MX-AP-DNA incubated with 50 μM FARP", "protocol": "It was known that the aldehyde group of an AP site could easily condense with aminooxy or hydrazone nucleophiles. However, the reversibility of the reaction was not clear, especially in the presence of another competing nucleophile. To clarify the above, two experiments were designed and carried out as follows: (a) FARP (50 μM in 100 μL of 10 mM phosphate buffer at pH 7.0) reacted with AP-DNA (125 nM in 200 μL of 10 mM phosphate buffer at pH 7.0) for 1 hr, after washing the condensation product (FARP-AP-DNA) incubated with MX (50 μM in 100 μL of 10 mM phosphate buffer at pH 7.0) for various time periods; and (b) MX (50 μM in 100 μL of 10 mM phosphate buffer at pH 7.0) reacted with AP-DNA (125 nM, 200 μL) for 1 hr, after washing the condensation product (MX-AP-DNA) incubated with FARP (50 μM in 100 μL of 10 mM phosphate buffer at pH 7.0) for various time periods."}, "AP-DNA [4]": {"system": "AP-DNA", "assay": "Competitive reactions between FARP and MX with AP-DNA", "settings": "[FARP]/[MX] 50.0 μM/20.0 μM, 125 nM AP-DNA"}, "[5]": {"settings": "test compound mixed with FARP at equal concentration and volume (50 μM in 100 μL, pH 7.0), 100 nM AP-DNA"}}, "note": "Values joined by “and” are separate entries in the source; they are usually repeats but may differ in a detail not shown here. Equal values may be shown once."}
{"compound": "CON", "note": "[MX, methoxyamine]", "values": [{"measurement": "Normalized Fluorescence Intensity %", "setting": "AP-DNA [1]; relative to FARP alone = 100, equal concentration of test compound and FARP, 100 nM AP-DNA", "value": 37.3, "unit": "%"}, {"measurement": "reactivity toward AP-DNA compared with FARP", "setting": "AP-DNA [1]; result in words", "value": "higher reactivity than FARP"}, {"measurement": "Fluorescence Intensity Individual Measurement", "setting": "AP-DNA [1]; [5]", "value": "6543.0 and 6137.0"}, {"measurement": "Fluorescence Intensity Mean", "setting": "AP-DNA [1]; [5]", "value": 6340.0}, {"measurement": "Fluorescence Intensity/10^4", "setting": "AP-DNA [2]; [FARP]/[MX] 50.0 μM/5.0 μM", "value": 8.9453}, {"measurement": "Fluorescence Intensity/10^4", "setting": "AP-DNA [2]; [FARP]/[MX] 50.0 μM/12.5 μM", "value": 8.3567}, {"measurement": "Fluorescence Intensity/10^4", "setting": "AP-DNA [2]; [FARP]/[MX] 50.0 μM/16.7 μM", "value": 7.6453}, {"measurement": "Fluorescence Intensity/10^4", "setting": "AP-DNA [2]; [FARP]/[MX] 50.0 μM/22.7 μM", "value": 3.8976}, {"measurement": "Fluorescence Intensity/10^4", "setting": "AP-DNA [2]; [FARP]/[MX] 50.0 μM/25.0 μM", "value": 3.2452}, {"measurement": "Fluorescence Intensity/10^4", "setting": "AP-DNA [2]; [FARP]/[MX] 50.0 μM/50.0 μM", "value": 2.587}, {"measurement": "Fluorescence Intensity/10^4", "setting": "AP-DNA [2]; [FARP]/[MX] 50.0 μM/100.0 μM", "value": 2.348}, {"measurement": "Fluorescence Intensity/10^4", "setting": "AP-DNA [2]; [FARP]/[MX] 50.0 μM/200.0 μM", "value": 2.2876}, {"measurement": "Fluorescence Intensity/10^4", "setting": "AP-DNA [2]; [FARP]/[MX] 50.0 μM/500.0 μM", "value": 2.0896}, {"measurement": "affinity toward AP-DNA compared with FARP", "setting": "AP-DNA [2]; result in words", "value": "greater affinity toward APDNA than that of FARP"}, {"measurement": "Fluorescence Intensity, FARP Reaction Followed MX Reaction", "setting": "AP-DNA [3]; replacement time 10 min", "value": "11,003"}, {"measurement": "Fluorescence Intensity, FARP Reaction Followed MX Reaction", "setting": "AP-DNA [3]; replacement time 20 min", "value": "11,289"}, {"measurement": "Fluorescence Intensity, FARP Reaction Followed MX Reaction", "setting": "AP-DNA [3]; replacement time 30 min", "value": "10,759"}, {"measurement": "Fluorescence Intensity, FARP Reaction Followed MX Reaction", "setting": "AP-DNA [3]; replacement time 40 min", "value": "11,193"}, {"measurement": "Fluorescence Intensity, FARP Reaction Followed MX Reaction", "setting": "AP-DNA [3]; replacement time 50 min", "value": "11,226"}, {"measurement": "Fluorescence Intensity, FARP Reaction Followed MX Reaction", "setting": "AP-DNA [3]; replacement time 60 min", "value": "11,139"}, {"measurement": "Fluorescence Intensity, FARP Reaction Followed MX Reaction", "setting": "AP-DNA [3]; replacement time 90 min", "value": "11,112"}, {"measurement": "Fluorescence Intensity, FARP Reaction Followed MX Reaction", "setting": "AP-DNA [3]; replacement time 120 min", "value": "11,145"}, {"measurement": "Fluorescence Intensity, MX Replacement Followed by FARP Replacement", "setting": "AP-DNA [3]; replacement time 10 min", "value": "3,366"}, {"measurement": "Fluorescence Intensity, MX Replacement Followed by FARP Replacement", "setting": "AP-DNA [3]; replacement time 20 min", "value": "3,225"}, {"measurement": "Fluorescence Intensity, MX Replacement Followed by FARP Replacement", "setting": "AP-DNA [3]; replacement time 30 min", "value": "3,557"}, {"measurement": "Fluorescence Intensity, MX Replacement Followed by FARP Replacement", "setting": "AP-DNA [3]; replacement time 40 min", "value": "3,410"}, {"measurement": "Fluorescence Intensity, MX Replacement Followed by FARP Replacement", "setting": "AP-DNA [3]; replacement time 50 min", "value": "3,321"}, {"measurement": "Fluorescence Intensity, MX Replacement Followed by FARP Replacement", "setting": "AP-DNA [3]; replacement time 60 min", "value": "3,192"}, {"measurement": "Fluorescence Intensity, MX Replacement Followed by FARP Replacement", "setting": "AP-DNA [3]; replacement time 90 min", "value": "3,202"}, {"measurement": "Fluorescence Intensity, MX Replacement Followed by FARP Replacement", "setting": "AP-DNA [3]; replacement time 120 min", "value": "3,081"}, {"measurement": "reversibility of the condensation reaction with aldehyde group of AP-DNA", "setting": "AP-DNA [3]; result in words, under the assay conditions", "value": "irreversible"}, {"measurement": "Fluorescence Intensity/10^4", "setting": "AP-DNA [4]", "value": 5.6423}]}
